# Experimental data reported in PubChem BioAssay (NCI).
# Several values for one entry are separate records, joined by “and”; a condition that tells them apart may be missing. Identical values can stand only once.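 Test compounds were applied to cells in 96-well plates for 48 hours at 5 doses. Here, GI50 denotes the concentration required for 50% inhibition of growth. The concentration for full growth arrest is given as TGI.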
# Key:
# Experiment in all cases: NCI tumour cell line growth inhibition, 48 h
# KM12 colon = test system: KM12 colon
# MCF7 breast = test system: MCF7 breast
# DLD-1 colon = test system: DLD-1 colon
# OVCAR-4 ovarian = test system: OVCAR-4 ovarian
# HOP-62 NSCLC = test system: HOP-62 NSCLC
# OVCAR-8 ovarian = test system: OVCAR-8 ovarian
# HT29 colon = test system: HT29 colon
# SK-MEL-2 melanoma = test system: SK-MEL-2 melanoma
# CCRF-CEM leukemia = test system: CCRF-CEM leukemia
# UACC-62 melanoma = test system: UACC-62 melanoma
# CAKI-1 renal = test system: CAKI-1 renal
# NCI/ADR-RES ovarian = test system: NCI/ADR-RES ovarian
# A549 NSCLC = test system: A549 NSCLC
# SW-620 colon = test system: SW-620 colon
# SF-539 CNS = test system: SF-539 CNS
# HOP-18 NSCLC = test system: HOP-18 NSCLC
# SN12K1 renal = test system: SN12K1 renal
# SNB-19 CNS = test system: SNB-19 CNS
# NCI-H460 lung = test system: NCI-H460 lung
# SF-295 CNS = test system: SF-295 CNS
# XF 498 CNS = test system: XF 498 CNS
# SNB-78 CNS = test system: SNB-78 CNS
# HCC-2998 colon = test system: HCC-2998 colon
# LOX IMVI melanoma = test system: LOX IMVI melanoma
# HCT-116 colon = test system: HCT-116 colon
# SNB-75 CNS = test system: SNB-75 CNS
# UO-31 renal = test system: UO-31 renal
# SN12C renal = test system: SN12C renal
# OVCAR-3 ovarian = test system: OVCAR-3 ovarian
# SF-268 CNS = test system: SF-268 CNS
# DMS 114 small cell lung = test system: DMS 114 small cell lung
# NCI-H226 lung = test system: NCI-H226 lung
# SK-OV-3 ovarian = test system: SK-OV-3 ovarian
# KM20L2 colon = test system: KM20L2 colon
# SK-MEL-5 melanoma = test system: SK-MEL-5 melanoma
# SK-MEL-28 melanoma = test system: SK-MEL-28 melanoma
# DMS 273 small cell lung = test system: DMS 273 small cell lung
# RPMI-8226 leukemia = test system: RPMI-8226 leukemia
# MALME-3M melanoma = test system: MALME-3M melanoma
# HL-60(TB) leukemia = test system: HL-60(TB) leukemia
# HCT-15 colon = test system: HCT-15 colon
# HOP-92 NSCLC = test system: HOP-92 NSCLC
# U251 CNS = test system: U251 CNS
# IGROV1 ovarian = test system: IGROV1 ovarian
# RXF 393 renal = test system: RXF 393 renal
# NCI-H522 lung = test system: NCI-H522 lung
# COLO 205 colon = test system: COLO 205 colon
# MOLT-4 leukemia = test system: MOLT-4 leukemia
# A498 renal = test system: A498 renal
# EKVX NSCLC = test system: EKVX NSCLC
# NCI-H23 lung = test system: NCI-H23 lung
# P388/ADR leukemia = test system: P388/ADR leukemia
# K-562 leukemia = test system: K-562 leukemia
# UACC-257 melanoma = test system: UACC-257 melanoma
# OVCAR-5 ovarian = test system: OVCAR-5 ovarian
# M19-MEL melanoma = test system: M19-MEL melanoma
# P388 leukemia = test system: P388 leukemia
# MDA-MB-231 breast = test system: MDA-MB-231 breast
# MDA-MB-435 = test system: MDA-MB-435
# HS 578T breast = test system: HS 578T breast
# MDA-N = test system: MDA-N
# M14 melanoma = test system: M14 melanoma
structure (smiles),measurement,setting,value
O=c1cc(O)ccn1C1C=C(CO)C(O)C1O (stereo unspecified),TGI,KM12 colon,> 625 µM
same,TGI,MCF7 breast,> 625 µM
same,TGI,DLD-1 colon,> 625 µM
same,TGI,OVCAR-4 ovarian,> 625 µM
same,TGI,HOP-62 NSCLC,> 625 µM
same,TGI,OVCAR-8 ovarian,> 625 µM
same,TGI,HT29 colon,> 625 µM
same,TGI,SK-MEL-2 melanoma,> 625 µM
same,TGI,CCRF-CEM leukemia,> 625 µM
same,TGI,UACC-62 melanoma,> 625 µM
same,TGI,CAKI-1 renal,> 625 µM
same,TGI,NCI/ADR-RES ovarian,> 625 µM
same,TGI,A549 NSCLC,> 625 µM
same,TGI,SW-620 colon,> 625 µM
same,TGI,SF-539 CNS,> 625 µM
same,TGI,HOP-18 NSCLC,> 625 µM
same,TGI,SN12K1 renal,> 625 µM
same,TGI,SNB-19 CNS,> 625 µM
same,TGI,NCI-H460 lung,> 625 µM
same,TGI,SF-295 CNS,> 625 µM
same,TGI,XF 498 CNS,< 0.0625 µM
same,TGI,SNB-78 CNS,> 625 µM
same,TGI,HCC-2998 colon,> 625 µM
same,TGI,LOX IMVI melanoma,> 625 µM
same,TGI,HCT-116 colon,> 625 µM
same,TGI,SNB-75 CNS,> 625 µM
same,TGI,UO-31 renal,> 625 µM
same,TGI,SN12C renal,> 625 µM
same,TGI,OVCAR-3 ovarian,> 625 µM
same,TGI,SF-268 CNS,> 625 µM
same,TGI,DMS 114 small cell lung,> 625 µM
same,TGI,NCI-H226 lung,> 625 µM
same,TGI,SK-OV-3 ovarian,> 625 µM
same,TGI,KM20L2 colon,> 625 µM
same,TGI,SK-MEL-5 melanoma,> 625 µM
same,TGI,SK-MEL-28 melanoma,> 625 µM
same,TGI,DMS 273 small cell lung,> 625 µM
same,TGI,RPMI-8226 leukemia,> 625 µM
same,TGI,MALME-3M melanoma,> 625 µM
same,TGI,HL-60(TB) leukemia,> 625 µM
same,TGI,HCT-15 colon,> 625 µM
same,TGI,HOP-92 NSCLC,> 625 µM
same,TGI,U251 CNS,> 625 µM
same,TGI,IGROV1 ovarian,> 625 µM
same,TGI,RXF 393 renal,> 625 µM
CC1[C@@H]2CC=C3C4CCC5Cc6nc7c(nc6C[C@@]5(C)C4CC(=O)[C@]32CO[C@@]1(O)C(O)CC(C)(C)O)CC1CCC2C3=C[C@H]4O[C@@]5(O[C@@](C)(CO)C[C@@H]5O)C(C)[C@@]4(O)[C@]3(C)[C@@H](O)CC2[C@]1(C)C7 (stereo partly specified),TGI,NCI-H522 lung,0.124 µM
same,TGI,KM12 colon,0.571 µM
same,TGI,MCF7 breast,0.192 µM
same,TGI,DLD-1 colon,1.15 µM
same,TGI,OVCAR-4 ovarian,1.29 µM
same,TGI,HOP-62 NSCLC,0.00248 µM
same,TGI,OVCAR-8 ovarian,3.6 µM
same,TGI,HT29 colon,0.0484 µM
same,TGI,SK-MEL-2 melanoma,0.0891 µM
same,TGI,CCRF-CEM leukemia,0.0294 µM
same,TGI,UACC-62 melanoma,0.0108 µM
same,TGI,CAKI-1 renal,0.417 µM
same,TGI,COLO 205 colon,0.0608 µM
same,TGI,NCI/ADR-RES ovarian,2.74 µM
same,TGI,A549 NSCLC,0.383 µM
same,TGI,SW-620 colon,0.0564 µM
same,TGI,SF-539 CNS,0.0423 µM
same,TGI,HOP-18 NSCLC,0.739 µM
same,TGI,SN12K1 renal,0.406 µM
same,TGI,MOLT-4 leukemia,0.376 µM
same,TGI,SNB-19 CNS,0.329 µM
same,TGI,NCI-H460 lung,0.0364 µM
same,TGI,SF-295 CNS,0.000713 µM
same,TGI,XF 498 CNS,0.0502 µM
same,TGI,SNB-78 CNS,0.483 µM
same,TGI,HCC-2998 colon,0.832 µM
same,TGI,LOX IMVI melanoma,0.0914 µM
same,TGI,HCT-116 colon,0.501 µM
same,TGI,SNB-75 CNS,0.00313 µM
same,TGI,A498 renal,0.0112 µM
same,TGI,EKVX NSCLC,0.0479 µM
same,TGI,NCI-H23 lung,0.0272 µM
same,TGI,UO-31 renal,0.0836 µM
same,TGI,P388/ADR leukemia,0.0891 µM
same,TGI,SN12C renal,2.9 µM
same,TGI,K-562 leukemia,0.434 µM
same,TGI,UACC-257 melanoma,0.112 µM
same,TGI,OVCAR-3 ovarian,2.36 µM
same,TGI,SF-268 CNS,0.124 µM
same,TGI,DMS 114 small cell lung,0.0471 µM
same,TGI,NCI-H226 lung,0.376 µM
same,TGI,SK-OV-3 ovarian,0.0279 µM
same,TGI,KM20L2 colon,0.137 µM
same,TGI,SK-MEL-5 melanoma,0.0469 µM
same,TGI,DMS 273 small cell lung,0.00174 µM
same,TGI,RPMI-8226 leukemia,0.045 µM
same,TGI,MALME-3M melanoma,0.0911 µM
same,TGI,HL-60(TB) leukemia,0.0581 µM
same,TGI,HCT-15 colon,0.33 µM
same,TGI,HOP-92 NSCLC,1.12 µM
same,TGI,U251 CNS,0.0345 µM
same,TGI,IGROV1 ovarian,0.736 µM
same,TGI,OVCAR-5 ovarian,0.0628 µM
same,TGI,M19-MEL melanoma,0.729 µM
O=C1c2ccccc2OCC1/C=N/O (stereo unspecified),TGI,NCI-H522 lung,62.1 µM
same,TGI,KM12 colon,> 100 µM
same,TGI,MCF7 breast,> 100 µM
same,TGI,DLD-1 colon,> 100 µM
same,TGI,OVCAR-4 ovarian,> 100 µM
same,TGI,P388 leukemia,> 63.7 µM
same,TGI,HOP-62 NSCLC,> 100 µM
same,TGI,OVCAR-8 ovarian,> 100 µM
same,TGI,HT29 colon,> 100 µM
same,TGI,SK-MEL-2 melanoma,> 100 µM
same,TGI,CCRF-CEM leukemia,> 100 µM
same,TGI,UACC-62 melanoma,> 100 µM
same,TGI,NCI/ADR-RES ovarian,> 100 µM
same,TGI,A549 NSCLC,> 100 µM
same,TGI,SW-620 colon,> 100 µM
same,TGI,SF-539 CNS,> 100 µM
same,TGI,HOP-18 NSCLC,> 100 µM
same,TGI,SN12K1 renal,> 100 µM
same,TGI,MOLT-4 leukemia,> 100 µM
same,TGI,NCI-H460 lung,> 100 µM
same,TGI,SF-295 CNS,> 100 µM
same,TGI,XF 498 CNS,> 100 µM
same,TGI,SNB-78 CNS,> 100 µM
same,TGI,HCC-2998 colon,> 100 µM
same,TGI,LOX IMVI melanoma,> 100 µM
same,TGI,HCT-116 colon,> 100 µM
same,TGI,SNB-75 CNS,> 100 µM
same,TGI,A498 renal,> 100 µM
same,TGI,EKVX NSCLC,> 100 µM
same,TGI,NCI-H23 lung,> 100 µM
same,TGI,UO-31 renal,> 100 µM
same,TGI,SN12C renal,> 100 µM
same,TGI,K-562 leukemia,> 100 µM
same,TGI,UACC-257 melanoma,> 100 µM
same,TGI,OVCAR-3 ovarian,> 100 µM
same,TGI,SF-268 CNS,> 100 µM
same,TGI,DMS 114 small cell lung,98.9 µM
same,TGI,NCI-H226 lung,> 100 µM
same,TGI,SK-OV-3 ovarian,> 100 µM
same,TGI,SK-MEL-5 melanoma,> 100 µM
same,TGI,SK-MEL-28 melanoma,> 100 µM
same,TGI,DMS 273 small cell lung,> 100 µM
same,TGI,RPMI-8226 leukemia,> 100 µM
same,TGI,MALME-3M melanoma,> 100 µM
same,TGI,HL-60(TB) leukemia,> 100 µM
same,TGI,HCT-15 colon,> 100 µM
same,TGI,HOP-92 NSCLC,> 96 µM
same,TGI,U251 CNS,> 100 µM
same,TGI,IGROV1 ovarian,> 100 µM
same,TGI,OVCAR-5 ovarian,> 100 µM
same,TGI,RXF 393 renal,76.4 µM
same,TGI,M19-MEL melanoma,> 100 µM
CO[C@H]1C[C@@H]2CC[C@@H](C)[C@@](O)(O2)C(=O)C(=O)N2CCCC[C@H]2C(=O)O[C@H]([C@H](C)C[C@@H]2CC[C@@H](O)[C@H](OC)C2)CC(=O)[C@H](C)C=C(C)[C@@H](O)[C@@H](OC)C(=O)[C@H](C)C[C@H](C)/C=C/C=C/C=C1C,TGI,DLD-1 colon,25.2 µM
same,TGI,OVCAR-4 ovarian,6.85 µM and 27 µM
same,TGI,P388 leukemia,27.8 µM
same,TGI,OVCAR-8 ovarian,27.7 µM and 62 µM and 243 µM
same,TGI,SK-MEL-2 melanoma,17.6 µM and 34.9 µM and 67.2 µM
same,TGI,MDA-MB-231 breast,26.3 µM and 170 µM
same,TGI,SF-539 CNS,14.6 µM and 22.4 µM and 82.9 µM
same,TGI,HOP-18 NSCLC,133 µM
same,TGI,SN12K1 renal,20.9 µM
same,TGI,MDA-MB-435,25.9 µM and 126 µM
same,TGI,SNB-78 CNS,16.9 µM
same,TGI,HCC-2998 colon,13.8 µM and 26.6 µM and 47.9 µM
same,TGI,HS 578T breast,13.7 µM and 86.4 µM
same,TGI,K-562 leukemia,40.5 µM and 365 µM
same,TGI,DMS 114 small cell lung,31.5 µM
same,GI50,MDA-N,79.1 µM
same,TGI,KM20L2 colon,41.5 µM
same,TGI,DMS 273 small cell lung,33.7 µM
same,TGI,HL-60(TB) leukemia,24.2 µM and 144 µM
same,TGI,M14 melanoma,27.2 µM and 144 µM
